# Source: US20210009551A1, “COMPOUNDS AND METHODS FOR TREATING FIBROSIS OR CANCER” (THE REGENTS OF THE UNIVERSITY OF CALIFORNIA, priority 2016, published 2021)
# How the values were obtained:
# [1] = system: TGFβ1 signaling (p-smad3, snail 1); experiment: TGFβ1 signaling in NMuMG cells expressing wild-type or mutant LOXL2; format: cell-based; details: 1 μM
# Protocol: (§1) Immunoblot. Pulverized tissue and cells were lysed in RIP A buffer (150 mM NaCl, 50 mM Tris, pH 8.0, 1% Triton X-100, 0.5% sodium deoxycholate, 0.1% SDS, supplemented with protease and phosphatase inhibitors) and analyzed by immunoblotting. Densitometry was quantified using NIH Imaged software.
# Site-directed mutagenesis of LOXL2. Site-directed mutagenesis was performed to generate K614N, K731R, and K759R point mutations using Phusion Site-Directed Mutagenesis Kit (Thermo Scientific, Waltham, Mass.) according to manufacturer's instructions. A pcDNA3-hLOXL2-flag plasmid containing the cDNA fragment of wild-type human LOXL2 fused with a flag tag at the C-terminus, was used as the template DNA^18. Mutations were confirmed by DNA sequencing. The primers and their complementary strands used are: K614N forward 5′-[…]-3′ (SEQ ID NO:2), K614N reverse 5′-[…]-3′(SEQ ID NO:3); K731R forward 5′-[…]-3′(SEQ ID NO:4), K731R reverse 5′-[…]-3′(SEQ ID NO:5); K759R forward 5′-[…]-3′(SEQ ID NO:6), and K759R reverse 5′-[…]-3′(SEQ ID NO:7).
# [2] = system: LOXL2-high A549 cells; experiment: Corilagin level in conditioned medium by LC-MS, A549; format: in vitro ADME; details: 1 μM, 5 hrs
# [3] = target: T1, wild-type or mutant human LOXL2 (Homo sapiens, UniProt Q9Y4K0); experiment: LOX activity of conditioned media from NMuMG cells expressing wild-type or mutant LOXL2; format: cell-based; details: 1 μM, 6 h, K614N, K759R, all except the K731 mutant
# T1 construct: Flag (C); expressed in transfected cells; host or cells: NMuMG cells, conditioned medium
# T1 sequence (Q9Y4K0 26-774): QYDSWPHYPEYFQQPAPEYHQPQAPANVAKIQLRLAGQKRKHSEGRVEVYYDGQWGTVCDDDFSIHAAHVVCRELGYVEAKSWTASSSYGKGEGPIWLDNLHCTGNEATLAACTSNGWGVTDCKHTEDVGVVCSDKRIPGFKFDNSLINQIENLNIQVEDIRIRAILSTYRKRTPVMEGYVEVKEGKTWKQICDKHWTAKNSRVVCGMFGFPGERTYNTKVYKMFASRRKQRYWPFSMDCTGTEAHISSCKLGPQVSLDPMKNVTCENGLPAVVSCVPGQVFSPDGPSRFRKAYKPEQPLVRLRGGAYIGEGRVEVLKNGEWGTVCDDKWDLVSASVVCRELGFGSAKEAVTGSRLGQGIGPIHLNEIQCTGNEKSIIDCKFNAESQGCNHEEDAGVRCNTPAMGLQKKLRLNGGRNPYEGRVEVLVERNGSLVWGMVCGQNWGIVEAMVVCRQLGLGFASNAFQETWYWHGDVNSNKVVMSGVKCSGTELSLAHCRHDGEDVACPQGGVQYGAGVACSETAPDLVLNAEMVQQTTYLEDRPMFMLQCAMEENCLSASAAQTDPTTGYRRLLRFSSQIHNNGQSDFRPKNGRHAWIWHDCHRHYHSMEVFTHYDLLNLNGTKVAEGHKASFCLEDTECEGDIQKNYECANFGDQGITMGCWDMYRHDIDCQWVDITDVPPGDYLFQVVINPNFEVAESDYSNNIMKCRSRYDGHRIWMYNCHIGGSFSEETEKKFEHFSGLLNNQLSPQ
# Protocol: (§2) LOX activity assay LOX activity of recombinant human LOXL2 or conditioned medium collected from cells expressing LOXL2 was measured using a Fluorimetric Lysyl Oxidase Activity Assay Kit (Abeam, Cambridge, Mass.) following a protocol provided by the manufacturer. Briefly, 50 μl of sample was mixed with an equal volume of assay reaction mixture containing LOX substrate, horseradish peroxidase (HRP) and HRP substrate in the presence and absence of testing inhibitors and D-penicillamine (DPA), a LOX inhibitor. The mixture was incubated for 30 min at 37° C. in darkness. The fluorescence increase was then measured with a fluorescence plate reader (BMG Lab Tech FLUOstar) at Ex/Em=540/590 nm. Sample buffer or medium alone without LOXL2 was used for determination of the background fluorescence.
# Site-directed mutagenesis of LOXL2. Site-directed mutagenesis was performed to generate K614N, K731R, and K759R point mutations using Phusion Site-Directed Mutagenesis Kit (Thermo Scientific, Waltham, Mass.) according to manufacturer's instructions. A pcDNA3-hLOXL2-flag plasmid containing the cDNA fragment of wild-type human LOXL2 fused with a flag tag at the C-terminus, was used as the template DNA^18. Mutations were confirmed by DNA sequencing. […]
# [4] = Solubility (statement); format: physicochemical
# [5] = target: T2, human LOXL2 (Homo sapiens, UniProt Q9Y4K0); experiment: Collagen crosslinking induced by recombinant LOXL2 in lung fibroblasts (Sircol assay); format: cell-based; details: primary human lung fibroblasts, 7 days
# T2 sequence (Q9Y4K0 26-774): T1 sequence (Q9Y4K0 26-774)
# Protocol: Preparation of insoluble cross-linked collagen. Fibroblasts were cultured on 10 cm dish until confluent. The medium was then changed to Dulbecco's modified Eagle's medium (DMEM) containing 5% FBS, 100 μM L-ascorbic acid with 500 kDa Dextran Sulfate at 100 μg/ml, and 50 ng/ml recombinant human LOXL2 (rhLOXL2) for 7 days^21,22. The cell layer was extracted with 0.5 M acetic acid and 0.1 mg/ml pepsin overnight at 4° C. The leftover insoluble fraction was further extracted and the insoluble cross-linked collagen measured using Sircol Insoluble Collagen Assay kit according to manufacture's instruction.
# [6] = target: T2, human LOXL2; experiment: LOX activity assay (H2O2 release, fluorimetric); format: biochemical; details: 1 h incubation, read-out: IC50 of LOXL2 enzymatic activity toward a model substrate
# Protocol: as §2
# [7] = system: urinary DPD/PYD after bleomycin; experiment: Urinary PYD/DPD measurements; format: in vivo, mice; details: 100 mg/kg from day 10
# Protocol: Urinary PYD/DPD measurements. Pooled urine from each of 3-5 mice for each time point after bleomycin in a cohort of mice treated with vehicle or corilagin (100 mg/kg) beginning on day 10 post bleomycin were collected. Urine specimens were also collected from two cohorts of IPF patients and controls at two sites: All consenting patients with physician-established diagnosis of IPF followed in the respective ILD programs were included in sample collection. PYD/DPD levels from all the samples were measured using MicroVue EIA Assay Kit (Quidel Corp., San Diego, Calif.) along with PYD/DPD standards and the results were normalized relative to urinary creatinine. The statistical significance was analyzed using Mann-Whitney U-Test.
# [8] = system: TGFβ1-induced epithelial-mesenchymal transition (EMT) in A549 adenocarcinoma cells; experiment: TGFβ1-induced EMT in A549 cells (image-based screen, immunoblot); format: cell-based
# Protocol: High throughput screen and high content imaging analysis. A549 cell-based screening of inhibitors to TGFβ1-induced EMT from a bioactive small molecule library was performed in 384-well plate format and the images were captured and analyzed using GE IN Cell 2000 as described previously^16.
# as §1
# [9] = system: TGFβ1 signaling (p-smad3) in A549 cells; experiment: TGFβ1-induced p-smad generation in cells (immunoblot); format: cell-based; details: 1 μM
# Protocol: as §1
# [10] = system: EGFR; experiment: EGF signaling through EGFR (immunoblot); format: cell-based; details: 1 μM, 6 h pre-treatment, A549 and MDA-MB-231 cells
# Protocol: as §1
smiles,measurement,setting,value
"O=C(O[C@@H]1O[C@@H]2COC(=O)c3cc(O)c(O)c(O)c3-c3c(cc(O)c(O)c3O)C(=O)O[C@H]([C@H]1O)[C@@H]2O)c1cc(O)c(O)c(O)c1 [corilagin, Corilagin]",inhibition of TGFβ1 signaling in cells expressing K731R LOXL2,[1],completely resistant
same,corilagin concentration in conditioned medium,[2],decreased dramatically
same,inhibition of LOX activity of wt and point mutant LOXL2,[3],completely inhibited
same,solubility,[4],more soluble
same,IC50,[5],0.01 µM
same,IC50,[6],0.05 µM
same,increase of urinary DPD/PYD levels days 10-21 post bleomycin,[7],suppressed
same,IC50,"[8]; Homo sapiens, A549 cells stimulated with TGFβ1, 48 h",0.05 µM
same,inhibitory effects on EMT after knockdown of LOXL2,"[8]; LOXL2 RNAi, A549 cells, 1 μM",completely abrogated
same,TGFβ1-induced p-smads after longer pre-incubation,[9]; pre-incubation 3 h or 6 h,completely suppressed
same,effects on p-smad3 generation after knockdown of LOXL2,"[9]; A549 cells and primary lung fibroblasts, 6 h",completely blocked
same,EGF signaling through EGFR,[10],no effect
